According to patent publication US10294202B2, “Pyrrolidinones as herbicides” (FMC Corporation, priority 2013, dated 2019):

Key:
[1] = system: corn; experiment: Test A pre-/postemergence herbicide test; assay type: in vivo, Zea mays
In short: (§1)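 Approximately 10 days after treatment in the greenhouse, plants were compared with untreated controls and given a 0–100 visual injury rating. Applications: preemergence directed soil spray; postemergence on 2–10 cm plants at the one- to two-leaf stage.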

[2] = system: velvetleaf; experiment: Test C pre-/postemergence herbicide test; assay type: in vivo, Abutilon theophrasti
In short: (§2)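 Plants grown and held in a greenhouse for 13 to 15 days post-spray, then rated 0–100 by visual comparison with controls. Pre treatments targeted seeds in loam and sand; post treatments targeted 1- to 4-leaf plants in peat-based potting medium.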

[3] = system: rice; experiment: Test B flooded paddy test; assay type: in vivo, Oryza sativa; details: 250 g ai/ha, Flood; scale of 0 to 100 where 0 is no effect and 100 is complete control
In short: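 2-leaf plants; flood 3 cm over soil; compound into paddy water; depth held. Greenhouse 13–15 d. Visual rating vs controls, 0 (no effect) to 100 (complete control); dash = not tested.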

[4] = system: pigweed; experiment: Test A pre-/postemergence herbicide test; assay type: in vivo, Amaranthus retroflexus
In short: as §1

[5] = system: blackgrass; experiment: Test C pre-/postemergence herbicide test; assay type: in vivo, Alopecurus myosuroides
In short: as §2

[6] = system: giant foxtail; experiment: Test A pre-/postemergence herbicide test; assay type: in vivo, Setaria faberii
In short: as §1

[7] = system: barnyardgrass; experiment: Test A pre-/postemergence herbicide test; assay type: in vivo, Echinochloa crus-galli
In short: as §1

[8] = system: johnsongrass; experiment: Test C pre-/postemergence herbicide test; assay type: in vivo, Sorghum halepense
In short: as §2

[9] = system: nutsedge, yellow; experiment: Test C pre-/postemergence herbicide test; assay type: in vivo, Cyperus esculentus
In short: as §2

[10] = system: foxtail, giant; experiment: Test C pre-/postemergence herbicide test; assay type: in vivo, Setaria faberii
In short: as §2

[11] = Postemergence, 1000 g ai/ha, 0 to 100 scale (0 no effect, 100 complete control)
[12] = Preemergence, 1000 g ai/ha, visual rating on 0 to 100 scale (0 no effect, 100 complete control), approx. 10 days
[13] = Preemergence, 62 g ai/ha, scale 0 to 100
[14] = Preemergence, 125 g ai/ha, scale 0 to 100 (0 no effect, 100 complete control)
[15] = Preemergence, 31 g ai/ha, scale 0 to 100 (0 no effect, 100 complete control)
[16] = Preemergence, 250 g ai/ha, scale 0 to 100 (0 no effect, 100 complete control)
[17] = Postemergence, 31 g ai/ha, scale 0 (no effect) to 100 (complete control)
[18] = Postemergence, 62 g ai/ha, scale 0 to 100 (0 no effect, 100 complete control)
[19] = Postemergence, 125 g ai/ha, scale 0 to 100 (0 no effect, 100 complete control)
[20] = Postemergence, 250 g ai/ha, scale 0 to 100 (0 no effect, 100 complete control)
[21] = Postemergence, 125 g ai/ha, 0 to 100 scale, 0 no effect, 100 complete control
[22] = Postemergence, 500 g ai/ha, 0 to 100 scale (0 no effect, 100 complete control)
[23] = Preemergence, 125 g ai/ha, visual rating on 0 to 100 scale (0 no effect, 100 complete control)
[24] = preemergence, 500 g ai/ha, 0 to 100 scale

O=C1NCC(c2cc(F)c(F)c(F)c2)C1C(=O)Nc1ccccc1C(F)(F)F (racemic) [Compound 33]
Plant response rating, Corn [1, 11]: 40 | Plant response rating, Corn [1, 12]: 0 | Plant response rating, Velvetleaf [2, 13]: 10 | Plant response rating, Velvetleaf [2, 14]: 10 | Plant response rating, Rice [3]: 0 | Plant response rating, Pigweed [4, 11]: 0 | Plant response rating, Pigweed [4, 12]: 0 | Blackgrass plant response rating [5, 15]: 0 | Plant response rating, Blackgrass [5, 13]: 0 | Plant response rating, Blackgrass [5, 14]: 0 | Plant response rating, Blackgrass [5, 16]: 5 | Plant response rating, Foxtail, Giant [6, 11]: 90 | Plant response rating, Foxtail, Giant [6, 12]: 90 | Plant response rating, Barnyardgrass [7, 11]: 90 | Plant response rating, Barnyardgrass [7, 12]: 90 | Plant response rating, Johnsongrass [8, 13]: 0 | Plant response rating, Johnsongrass [8, 14]: 0 | Plant response rating, Nutsedge, Yellow [9, 13]: 10 | Foxtail, Giant plant response rating [10, 15]: 75 | Plant response rating, Foxtail, Giant [10, 13]: 95 | Plant response rating, Foxtail, Giant [10, 14]: 98 | Plant response rating, Foxtail, Giant [10, 16]: 98

O=C1NCC(c2cc(F)c(F)c(F)c2)C1C(=O)Nc1ccccc1F (racemic) [Compound 34]
Plant response rating, Corn [1, 11]: 50 | Plant response rating, Corn [1, 12]: 30 | Plant response rating, Velvetleaf [2, 17]: 5 | Plant response rating, Velvetleaf [2, 18]: 5 | Plant response rating, Velvetleaf [2, 19]: 5 | Plant response rating, Velvetleaf [2, 20]: 5 | Plant response rating, Velvetleaf [2, 13]: 0 | Plant response rating, Velvetleaf [2, 14]: 0 | Plant response rating, Rice [3]: 0 | Plant response rating, Pigweed [4, 11]: 0 | Plant response rating, Pigweed [4, 12]: 0 | Plant response rating, Blackgrass [5, 17]: 0 | Plant response rating, Blackgrass [5, 18]: 0 | Plant response rating, Blackgrass [5, 19]: 0 | Plant response rating, Blackgrass [5, 20]: 0 | Blackgrass plant response rating [5, 15]: 0 | Plant response rating, Blackgrass [5, 13]: 0 | Plant response rating, Blackgrass [5, 14]: 10 | Plant response rating, Blackgrass [5, 16]: 45 | Plant response rating, Foxtail, Giant [6, 11]: 90 | Plant response rating, Foxtail, Giant [6, 12]: 90 | Plant response rating, Barnyardgrass [7, 11]: 90 | Plant response rating, Barnyardgrass [7, 12]: 90 | Plant response rating, Johnsongrass [8, 17]: 0 | Plant response rating, Johnsongrass [8, 18]: 0 | Plant response rating, Johnsongrass [8, 19]: 0 | Plant response rating, Johnsongrass [8, 20]: 0 | Plant response rating, Johnsongrass [8, 13]: 10 | Plant response rating, Johnsongrass [8, 14]: 10 | Plant response rating, Nutsedge, Yellow [9, 17]: 5 | Plant response rating, Nutsedge, Yellow [9, 18]: 5 | Plant response rating, Nutsedge, Yellow [9, 19]: 10 | Plant response rating, Nutsedge, Yellow [9, 20]: 10 | Plant response rating, Nutsedge, Yellow [9, 13]: 0 | Plant response rating, Nutsedge, Yellow [9, 14]: 0 | Plant response rating, Foxtail, Giant [10, 17]: 0 | Plant response rating, Foxtail, Giant [10, 18]: 5 | Plant response rating, Foxtail, Giant [10, 19]: 5 | Plant response rating, Foxtail, Giant [10, 20]: 35 | Foxtail, Giant plant response rating [10, 15]: 90 | Plant response rating, Foxtail, Giant [10, 13]: 95 | Plant response rating, Foxtail, Giant [10, 14]: 98 | Plant response rating, Foxtail, Giant [10, 16]: 98

Cc1ccccc1NC(=O)C1C(=O)NCC1c1cc(F)c(F)c(F)c1 (racemic) [Compound 35]
Plant response rating, Corn [1, 11]: 20 | Plant response rating, Corn [1, 12]: 20 | Plant response rating, Velvetleaf [2, 13]: 20 | Plant response rating, Velvetleaf [2, 14]: 20 | Plant response rating, Rice [3]: 0 | Plant response rating, Pigweed [4, 11]: 0 | Plant response rating, Pigweed [4, 12]: 0 | Blackgrass plant response rating [5, 15]: 0 | Plant response rating, Blackgrass [5, 13]: 0 | Plant response rating, Blackgrass [5, 14]: 5 | Plant response rating, Blackgrass [5, 16]: 50 | Plant response rating, Foxtail, Giant [6, 11]: 90 | Plant response rating, Foxtail, Giant [6, 12]: 90 | Plant response rating, Barnyardgrass [7, 11]: 90 | Plant response rating, Barnyardgrass [7, 12]: 90 | Plant response rating, Johnsongrass [8, 13]: 0 | Plant response rating, Johnsongrass [8, 14]: 0 | Plant response rating, Nutsedge, Yellow [9, 13]: 0 | Plant response rating, Nutsedge, Yellow [9, 14]: 0 | Foxtail, Giant plant response rating [10, 15]: 80 | Plant response rating, Foxtail, Giant [10, 13]: 90 | Plant response rating, Foxtail, Giant [10, 14]: 98 | Plant response rating, Foxtail, Giant [10, 16]: 98

O=C1NCC(c2ccc(Cl)c(F)c2)C1C(=O)Nc1ccccc1F (stereo not shown) [Compound 53]
Plant response rating, Corn [1, 21]: 0 | Plant response rating, Corn [1, 22]: 0 | Corn plant response rating [1, 23]: 0 | Plant response rating, Corn [1, 24]: 0 | Plant response rating, Velvetleaf [2, 13]: 0 | Plant response rating, Velvetleaf [2, 14]: 0 | Plant response rating, Rice [3]: 0 | Plant response rating, Pigweed [4, 21]: 0 | Plant response rating, Pigweed [4, 22]: 0 | Pigweed plant response rating [4, 23]: 0 | Plant response rating, Pigweed [4, 24]: 0 | Blackgrass plant response rating [5, 15]: 0 | Plant response rating, Blackgrass [5, 13]: 0 | Plant response rating, Blackgrass [5, 14]: 0 | Plant response rating, Blackgrass [5, 16]: 0 | Plant response rating, Foxtail, Giant [6, 21]: 30 | Plant response rating, Foxtail, Giant [6, 22]: 80 | Foxtail, Giant plant response rating [6, 23]: 90 | Plant response rating, Foxtail, Giant [6, 24]: 90 | Plant response rating, Barnyardgrass [7, 21]: 30 | Plant response rating, Barnyardgrass [7, 22]: 80 | Barnyardgrass plant response rating [7, 23]: 80 | Plant response rating, Barnyardgrass ([7]; preemergence, 500 g ai/ha, 0 to 100 scale (0 no effect, 100 complete control)): 90 | Plant response rating, Johnsongrass [8, 13]: 0 | Plant response rating, Johnsongrass [8, 14]: 0 | Plant response rating, Nutsedge, Yellow [9, 13]: 20 | Foxtail, Giant plant response rating [10, 15]: 40 | Plant response rating, Foxtail, Giant [10, 13]: 65 | Plant response rating, Foxtail, Giant [10, 14]: 65 | Plant response rating, Foxtail, Giant [10, 16]: 85
